The text below walks through data of US20250163119A1, “COMPOUNDS FOR THE TREATMENT OF DIABETES OR OBESITY” (Eli Lilly and Company, priority 2023, published 2025).

Where “and” joins values, the source holds several entries; their conditions need not be identical. Equal entries are not always repeated. Where two headings read alike, the source gives them in different places. *1 amine or outer side, *2 acyl side, *3 side chain or, on linkers, in order; H or OH if unused. Where a SMILES comes first, the peptide text is derived from it. Side-chain parts run from the residue outwards. [ ]: non-standard residue; d: D form. The star is where a group is joined. C20 diacid = O=C(O)CCCCCCCCCCCCCCCCCCC(=O)*; γGlu = O=C(O)[C@H](CCC(=O)[*:2])N[*:1]; εLys = N[C@@H](CCCCN[*:1])C(=O)[*:2]; NMeI = CC[C@H](C)[C@H](NC)C(=O)O; pGlu = O=C1CC[C@@H](C(=O)O)N1; αMeL = CC(C)C[C@](C)(N)C(=O)O; AEEA = NCCOCCOCC(=O)O; Aib = CC(C)(N)C(=O)O

The subject of one series is CD4+ T cells. Description: T cell proliferation assay. The class given is cell-based, human. To be noted: for T Cell Proliferation Assay: protein 7-10 donors with diverse MHC: responding donors / donors tested. Here is the method: This assay assessed the ability of tested antibodies or tested MAPPS peptides to activate CD4+ T cells by inducing cellular proliferation. CD8+ T cell depleted PBMC's were prepared and labeled with CFSE. Each sample was tested with media control, keyhole limpet haemocyanin (KLH; positive clinical benchmark control), tested antibodies, or tested MAPPS peptides. Cultures were incubated for 7 days. On day 7, samples were analyzed by flow cytometry.

The nature of series [1]: Pharmacokinetics in Cynomolgus monkeys, single subcutaneous or intravenous dose. The format is in vivo. The procedure: Plasma concentrations of compounds were determined by LC/MS methods. For each assay, the compound and an internal standard (IS), were extracted from 100% mouse, rat, pig, or monkey plasma (70 μL) using Isopropanol-Methanol. Two distinct layers were formed upon centrifugation with the compound and the IS located in the supernatant layer. An aliquot of the supernatant (150 μL) was transferred to a Waters Sirocco Protein Precipitation Plate. The supernatant was eluted using a positive pressure manifold. The supernatant was mixed with 100-2 Water-Formic acid (400 μL) in a pretreated Sep-Pak tC18 SPE plate and eluted to waste. The peptide and IS were eluted with Acetonitrile-Formic acid (100 μL) in 2 steps (50 μL each step). The elution (40 μL) from SPE plate was mixed with diluent solution (1.875 μL 5× invitrosol and 3.125 μL 1% formic acid in water, 80 μL). A final sample (10 μl) was loaded onto a Xselect CSH C18 IS column (3.5 μm 2.1×20 mm). The column effluent was directed into a Thermo Fisher Scientific Orbitrap (Exploris 240) mass spectrometer for detection and quantitation.
Male and female Cynomolgus monkeys were administered a single subcutaneous dose or intravenous dose (183 to 190 nmol/kg) of compound in 40 mM Tris-HCl 5% D-mannitol (pH 8) at a volume of 0.5 mL/kg. Blood was collected from each animal at 0.5, 3, 6, 24, 48, 72, 96, 168, 240, 336, 408, and 504 hours postdose for pharmacokinetic characterization.

In series [2] the test system is pre-existing antibodies (ADA) in treatment-naive normal human serum. Description: Pre-existing reactivity (ACE assay format). The class given is binding. To be noted: for Pre-existing Reactivity 90th percentile T2 inhibition >50 donors: ACE assay format. The procedure: This assay assessed the presence of pre-existing antibodies (ADA) against the tested molecules in treatment-naive normal human serum (NHS). Diluted NHS was incubated overnight on a Pierce Streptavidin plate coated with biotinylated tested molecules. On the following day, the captured binding proteins were acid eluted, hard-coated to a Mesoscale (MSD) plate, and detected with a combination of biotin-labeled molecule and ruthenium-labeled streptavidin. If anti-drug antibodies were present, they would bind the labeled drug and the resulting signal was referred to as Tier 1 signal (expressed as electrochemiluminescence). […] The presence of pre-existing anti-drug antibodies was expressed as magnitude of the 90th percentile of Tier 2 inhibition. The 90th percentile of Tier 2 inhibition is a statistical tool to assess the magnitude of specificity of Tier 1 reactivity. This 90th percentile was used to rank molecules in terms of ADA risk.

The mark [3] stands for this setting: both sexes, cynomolgus monkey, plasma, iv, 183 nmol/kg, single intravenous dose 183 nmol/kg, Mean.
The mark [4] stands for this setting: both sexes, cynomolgus monkey, plasma, iv, 183 nmol/kg, single intravenous dose 183 nmol/kg, individual animal.
[5] abbreviates: single intravenous dose 183 nmol/kg, individual animal.
Setting [6] is: single subcutaneous dose 183 nmol/kg, individual animal.
The mark [7] stands for this setting: both sexes, cynomolgus monkey, plasma, iv, 187 nmol/kg, single intravenous dose 187 nmol/kg, Mean.
The mark [8] stands for this setting: both sexes, cynomolgus monkey, plasma, iv, 187 nmol/kg, single intravenous dose 187 nmol/kg, individual animal.
[9] abbreviates: single intravenous dose 187 nmol/kg, individual animal.
Setting [10] is: single subcutaneous dose 187 nmol/kg, individual animal.

As usually defined, the half-life is the time in which the quantity being followed falls by half. A low value points to rapid decline. The Tmax is the time from dosing to the highest level. Broadly, the Cmax is the highest concentration seen after dosing. On to “[pGlu]GSPSGIVTS[αMeL]DVPT[Aib][αMeL]LQKILEQERAEKARQQAK([γGlu-AEEA-εLys-C20 diacid])EAAEILAQV-NH2 [SEQ ID NO: 22, Pyr-GSPSGIVTS αMeL DVPT Aib αMeL LQKILEQERAEKARQQAK(γE-(2-[2-(2-Amino-ethoxy)-ethoxy]-acetyl)-ϵK-CO-(CH2)18-CO2H)EAAEILAQV-NH2]”, for which the “T Cell Proliferation Assay: protein 7-10 donors with diverse MHC” value (“T Cell Proliferation Assay” for short) with CD4+ T cells was 0/9. In addition, the values for the clearance in series [1] (setting [3]) and in series [1] (setting [4]) were 9.89 mL/day/kg and 9.41 mL/day/kg, respectively. Further, the half-life in series [1] (setting [3]) is 98.1 h; in series [1] (setting [4]) it was 83.1 h; in series [1] (both sexes, cynomolgus monkey, plasma, sc, 183 nmol/kg, single subcutaneous dose 183 nmol/kg, Mean), 136 h. Moreover, the CL/F was 12.9 mL/day/kg in series [1] (both sexes, cynomolgus monkey, plasma, sc, 183 nmol/kg, single subcutaneous dose 183 nmol/kg, Mean, read-out: CL/F (converted)); 12.5 mL/day/kg in series [1] (both sexes, cynomolgus monkey, plasma, sc, 183 nmol/kg, single subcutaneous dose 183 nmol/kg, individual animal, read-out: CL/F (converted)); 13.2 mL/day/kg in series [1] (setting [6]). The Tmax in series [1] (both sexes, cynomolgus monkey, plasma, sc, 183 nmol/kg, single subcutaneous dose 183 nmol/kg, Mean, read-out: Tmax) amounted to 60 h; in series [1] (both sexes, cynomolgus monkey, plasma, sc, 183 nmol/kg, single subcutaneous dose 183 nmol/kg, individual animal, read-out: Tmax), 72 h; in series [1] (setting [6]), 48 h. For the same molecule, the AUC0-inf is 365 µM·h in series [1] (both sexes, cynomolgus monkey, plasma, sc, single subcutaneous dose 183 nmol/kg, Mean, read-out: AUC0-inf); 446 µM·h in series [1] (both sexes, cynomolgus monkey, plasma, single intravenous dose 183 nmol/kg, Mean, read-out: AUC0-inf); 467 µM·h and 424 µM·h in series [1] (setting [5]); 387 µM·h and 342 µM·h in series [1] (setting [6]). The Cmax in series [1] (both sexes, cynomolgus monkey, plasma, sc, single subcutaneous dose 183 nmol/kg, Mean, read-out: Cmax) is 2 µM; in series [1] (setting [6]) it was 1.72 µM and 2.28 µM. The C0 in series [1] (both sexes, cynomolgus monkey, plasma, single intravenous dose 183 nmol/kg, Mean, read-out: C0) is 4.74 µM; in series [1] (setting [5]) it was 4.16 µM and 5.32 µM. The “CL” value in series [1] (setting [5]) worked out at 10.3 mL/day/kg. In addition, the “T1/2” value in series [1] (setting [5]) was 113 h; in series [1] (setting [6]), 182 h and 90.2 h. Moreover, the “Pre-existing Reactivity 90th percentile T2 inhibition >50 donors” value in series [2] is 14.3%.
Take “Ac-GSPSIVTS[αMeL]DVPT[Aib][αMeL]LQKILEQERAEKARQQAK([γGlu-AEEA-εLys-C20 diacid])EAAEILAQV-NH2 [SEQ ID NO: 1, Ac-GSPSIVTS αMeL DVPT Aib αMeL LQKILEQERAEKARQQAK(γE-(2-[2-(2-Amino-ethoxy)-ethoxy]-acetyl)-ϵK-CO-(CH2)18-CO2H)EAAEILAQV-NH2]”: in the series with CD4+ T cells, the “T Cell Proliferation Assay” value was 0/9. The clearance in series [1] (setting [7]) is 14.7 mL/day/kg; in series [1] (setting [8]) it was 12.2 mL/day/kg. Moreover, the half-life in series [1] (setting [7]) is 91.6 h; in series [1] (setting [8]), 91.9 h; in series [1] (both sexes, cynomolgus monkey, plasma, sc, 187 nmol/kg, single subcutaneous dose 187 nmol/kg, Mean), 81.9 h; in series [1] (both sexes, cynomolgus monkey, plasma, sc, 187 nmol/kg, single subcutaneous dose 187 nmol/kg, individual animal), 72 h. Moreover, the CL/F in series [1] (both sexes, cynomolgus monkey, plasma, sc, 187 nmol/kg, single subcutaneous dose 187 nmol/kg, Mean, read-out: CL/F (converted)) is 19.5 mL/day/kg; in series [1] (both sexes, cynomolgus monkey, plasma, sc, 187 nmol/kg, single subcutaneous dose 187 nmol/kg, individual animal, read-out: CL/F (converted)), 20.8 mL/day/kg; in series [1] (setting [10]), 18.1 mL/day/kg. In addition, the Tmax in series [1] (both sexes, cynomolgus monkey, plasma, sc, 187 nmol/kg, single subcutaneous dose 187 nmol/kg, Mean, read-out: Tmax) was determined as 48 h; in series [1] (both sexes, cynomolgus monkey, plasma, sc, 187 nmol/kg, single subcutaneous dose 187 nmol/kg, individual animal, read-out: Tmax), 48 h. Further, the AUC0-inf in series [1] (both sexes, cynomolgus monkey, plasma, sc, single subcutaneous dose 187 nmol/kg, Mean, read-out: AUC0-inf) is 238 µM·h; in series [1] (both sexes, cynomolgus monkey, plasma, single intravenous dose 187 nmol/kg, Mean, read-out: AUC0-inf) it was 315 µM·h; in series [1] (setting [9]), 369 µM·h and 261 µM·h; in series [1] (setting [10]), 221 µM·h and 255 µM·h. In addition, the Cmax in series [1] (both sexes, cynomolgus monkey, plasma, sc, single subcutaneous dose 187 nmol/kg, Mean, read-out: Cmax) was 1.18 µM; in series [1] (setting [10]), 1.1 µM and 1.26 µM. Besides, the C0 was 4.6 µM in series [1] (both sexes, cynomolgus monkey, plasma, single intravenous dose 187 nmol/kg, Mean, read-out: C0); 5.04 µM and 4.15 µM in series [1] (setting [9]). Also, in series [1] (setting [9]), the “CL” value was found to be 17.2 mL/day/kg. Further, the “T1/2” value amounted to 91.3 h in series [1] (setting [9]) and 91.7 h in series [1] (setting [10]). The “90th percentile Tier 2 inhibition (pre-existing anti-drug antibodies)” value in series [2] is “higher 90th percentile Tier 2 inhibition than polypeptides comprising SEQ ID NOs: 22 and 25”. For the same molecule, the “Pre-existing Reactivity 90th percentile T2 inhibition >50 donors” value in series [2] is given as 37.9%.
In the case of `CC[C@H](C)[C@H](NC)C(=O)N[C@H](C(=O)N[C@@H](CC(C)C)C(=O)N[C@@H](CO)C(=O)N[C@@H](CC(C)C)C(=O)N[C@@H](CC(=O)O)C(=O)N[C@H](C(=O)N1CCC[C@H]1C(=O)N[C@H](C(=O)NCC(=O)N[C@@H](CC(C)C)C(=O)N[C@@H](CC(C)C)C(=O)N[C@@H](CCC(N)=O)C(=O)N[C@H](C(=O)N[C@@H](CC(C)C)C(=O)N[C@@H](CC(C)C)C(=O)N[C@@H](CCC(=O)O)C(=O)N[C@@H](CCC(N)=O)C(=O)N[C@@H](CCC(=O)O)C(=O)N[C@@H](CCCCN)C(=O)N[C@@H](CCC(N)=O)C(=O)N[C@@H](CCC(=O)O)C(=O)N[C@@H](CCCCN)C(=O)N[C@@H](CCC(=O)O)C(=O)N[C@@H](CCCCN)C(=O)N[C@@H](CCC(N)=O)C(=O)N[C@@H](CCC(N)=O)C(=O)N[C@@H](C)C(=O)N[C@@H](CCCCNC(=O)COCCOCCNC(=O)COCCOCCNC(=O)CC[C@H](NC(=O)CC[C@H](NC(=O)CCCCCCCCCCCCCCCCCCC(=O)O)C(=O)O)C(=O)O)C(=O)N[C@H](C(=O)N[C@@H](CC(N)=O)C(=O)N[C@@H](C)C(=O)N[C@@H](CCC(N)=O)C(=O)N[C@H](C(=O)N[C@@H](CC(C)C)C(=O)N[C@@H](C)C(=O)N[C@@H](CCC(N)=O)C(=O)N[C@H](C(N)=O)C(C)C)[C@@H](C)CC)[C@@H](C)O)[C@@H](C)CC)[C@@H](C)CC)C(C)C)C(C)C` [SEQ ID NO: 54] (H-[NMeI]VLSLDVPIGLLQILLEQEKQEKEKQQAK([AEEA-AEEA-γGlu-γGlu-C20 diacid])TNAQILAQV-NH2), the “CD4+ T cell proliferation response in donors” value in the series with CD4+ T cells (CD8+ T cell depleted PBMCs, 7 days, ten donors) is listed as “elicited a response in four out of ten donors”. Also, the “T Cell Proliferation Assay” value in the series on CD4+ T cells was 4/10.
